From US9096591B2, “Tetracyclic compounds” (Medivation Technologies, Inc., priority 2007, dated 2015)

What was measured:
[1] = biological target: T1, human recombinant serotonin (5-Hydroxytryptamine) 5-HT6 receptor (Homo sapiens, UniProt P50406); experiment: Serotonin 5-HT6 radioligand binding ([3H]LSD); parameters: Inhibition of ligand binding, Ser. 5-HT6: concentration or dose not given beside the values; settings: percent inhibition of specific binding
T1 construct: expressed in transfected cells; host or cells: human HeLa cells
T1 sequence (P50406 whole entry): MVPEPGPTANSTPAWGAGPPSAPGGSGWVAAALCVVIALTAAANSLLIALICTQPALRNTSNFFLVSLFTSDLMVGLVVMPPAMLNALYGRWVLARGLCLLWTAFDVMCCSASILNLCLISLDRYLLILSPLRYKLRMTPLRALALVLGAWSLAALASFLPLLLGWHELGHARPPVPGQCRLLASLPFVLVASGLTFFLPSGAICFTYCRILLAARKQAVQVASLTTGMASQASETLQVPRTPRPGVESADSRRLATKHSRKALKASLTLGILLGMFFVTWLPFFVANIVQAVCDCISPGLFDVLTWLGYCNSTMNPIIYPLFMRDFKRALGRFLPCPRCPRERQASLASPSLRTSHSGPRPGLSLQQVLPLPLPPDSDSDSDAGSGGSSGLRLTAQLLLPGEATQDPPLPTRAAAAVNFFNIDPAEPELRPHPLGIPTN
Text: Receptor proteins were filtered and washed, the filters were then counted to determine [3H]LSD specifically bound. […] Biochemical assay results are presented as the percent inhibition of specific binding in Table 6.

[2] = test system: adrenergic receptors α1D, α2A, α2B; serotonin receptor 5-HT6; dopamine receptor D2L; experiment: Classification of compounds (Type 1-4) from receptor binding and neurite outgrowth
[3] = biological target: T2, human recombinant serotonin (5-Hydroxytryptamine) 5-HT2A receptor (Homo sapiens, UniProt P28223); experiment: Serotonin 5-HT2A radioligand binding ([3H]Ketanserin); parameters: Inhibition of ligand binding, Ser. 5-HT2A: concentration or dose not given beside the values; settings: percent inhibition of specific binding
T2 construct: expressed in transfected cells; host or cells: CHO-K1 cells
T2 sequence (P28223 whole entry): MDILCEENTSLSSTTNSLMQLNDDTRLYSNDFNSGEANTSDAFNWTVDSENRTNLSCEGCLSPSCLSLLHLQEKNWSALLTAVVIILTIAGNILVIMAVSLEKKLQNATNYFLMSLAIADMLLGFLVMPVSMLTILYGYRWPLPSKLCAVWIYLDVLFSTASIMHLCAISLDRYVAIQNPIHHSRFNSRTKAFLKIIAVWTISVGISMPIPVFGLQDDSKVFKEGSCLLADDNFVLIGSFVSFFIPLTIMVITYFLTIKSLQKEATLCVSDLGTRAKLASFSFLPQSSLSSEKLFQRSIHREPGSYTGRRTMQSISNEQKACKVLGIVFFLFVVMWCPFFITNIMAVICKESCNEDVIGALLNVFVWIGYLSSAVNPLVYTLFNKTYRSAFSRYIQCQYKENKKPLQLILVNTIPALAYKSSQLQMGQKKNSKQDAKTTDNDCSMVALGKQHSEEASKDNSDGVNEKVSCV
Procedure: (§1) Compounds of the invention were incubated with 0.5 nM [^3H]Ketanserin for 60 minutes at 25° C. Non-specific binding was estimated in the presence of 1 μM Mianserin. Receptor proteins were filtered and washed, the filters were then counted to determine [^3H]Ketanserin specifically bound. […] Biochemical assay results are presented as the percent inhibition of specific binding in Table 6.

[4] = biological target: T3, human recombinant serotonin (5-Hydroxytryptamine) 5-HT2C receptor (Homo sapiens, UniProt P28335); experiment: Serotonin 5-HT2C radioligand binding ([3H]Mesulergine); parameters: Inhibition of ligand binding, Ser. 5-HT2C: concentration or dose not given beside the values; settings: percent inhibition of specific binding
T3 construct: expressed in transfected cells; host or cells: CHO-K1 cells
T3 sequence (P28335 33-458): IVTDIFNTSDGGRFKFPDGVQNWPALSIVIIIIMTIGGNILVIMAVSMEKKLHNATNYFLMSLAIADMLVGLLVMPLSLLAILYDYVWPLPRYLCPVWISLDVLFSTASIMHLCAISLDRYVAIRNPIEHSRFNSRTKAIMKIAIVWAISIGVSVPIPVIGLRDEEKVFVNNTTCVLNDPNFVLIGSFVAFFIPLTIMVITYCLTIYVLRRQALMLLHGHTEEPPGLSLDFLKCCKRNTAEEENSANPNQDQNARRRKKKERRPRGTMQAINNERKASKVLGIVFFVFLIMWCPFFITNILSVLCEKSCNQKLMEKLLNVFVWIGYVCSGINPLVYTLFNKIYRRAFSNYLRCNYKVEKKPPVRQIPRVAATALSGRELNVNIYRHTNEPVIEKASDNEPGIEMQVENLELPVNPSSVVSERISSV
Procedure: as §1, with “1” for “0.5”, “[^3H]Mesulergine” for “[^3H]Ketanserin”

[5] = biological target: T4, human recombinant adrenergic α1D receptor (Homo sapiens, UniProt P25100); experiment: Adrenergic α1D radioligand binding ([3H]Prozosin); parameters: Inhibition of ligand binding, Adren. alpha1D: concentration or dose not given beside the values; settings: percent inhibition of specific binding
T4 construct: expressed in transfected cells; host or cells: HEK-293 cells
T4 sequence (P25100 1-572): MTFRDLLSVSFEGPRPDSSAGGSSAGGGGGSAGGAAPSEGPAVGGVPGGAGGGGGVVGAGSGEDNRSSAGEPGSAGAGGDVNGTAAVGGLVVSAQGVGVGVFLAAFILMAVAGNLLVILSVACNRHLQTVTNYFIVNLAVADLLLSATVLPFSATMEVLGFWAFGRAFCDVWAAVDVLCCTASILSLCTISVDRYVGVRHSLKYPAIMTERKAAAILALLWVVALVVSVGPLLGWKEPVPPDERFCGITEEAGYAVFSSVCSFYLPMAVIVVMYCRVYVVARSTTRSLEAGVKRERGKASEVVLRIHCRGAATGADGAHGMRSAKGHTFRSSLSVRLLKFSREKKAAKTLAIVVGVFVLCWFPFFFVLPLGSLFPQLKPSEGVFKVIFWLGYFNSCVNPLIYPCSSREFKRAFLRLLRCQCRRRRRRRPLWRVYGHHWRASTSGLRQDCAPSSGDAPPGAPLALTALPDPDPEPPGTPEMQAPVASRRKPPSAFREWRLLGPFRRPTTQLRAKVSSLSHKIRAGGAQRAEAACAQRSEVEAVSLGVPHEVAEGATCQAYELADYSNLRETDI
Procedure: as §1, with “of” for “of the”, “0.6” for “0.5”, “[^3H]Prozosin” for “[^3H]Ketanserin”, “10” for “1”, “phentolamine.” for “Mianserin.”

rat brain mitochondria = experiment: Calcium retention capacity of mitochondria; format: biochemical, Wistar rats; settings: at concentrations near the IC50
Procedure: Analyses of extramitochondrial Ca^2+ following a bolus dose of Ca^2+ were performed under energized conditions, in a sucrose based buffer (250 mM sucrose, 10 mM HEPES, 1 mM Pi (K), 1 mM MgCl2, 10 μM EGTA, pH 7.2) containing 5 mkM Arsenazo III, 1 μg/ml oligomycin and 20 μM ADP with 5 mM malate and glutamate as respiratory substrates in a cuvette in a Beckman DU 640 spectrophotometer.

mice = experiment: recognition test of new location of a known object (spatial memory); format: in vivo

SMILES	Inhibition of ligand binding, Ser. 5-HT6 [1]	compound type (classification by receptor binding profile and neurite outgrowth) [2]	Inhibition of ligand binding, Ser. 5-HT2A [3]	Inhibition of ligand binding, Ser. 5-HT2C [4]	Inhibition of ligand binding, Adren. alpha1D [5]	calcium-retention capacity of mitochondria (rat brain mitochondria)	Influence on memory in the test recognition new localization of known object (mice; Dose of Compound 0.05 mg/kg)	Influence on memory in the test recognition new localization of known object (mice; Dose of Compound 0.1 mg/kg)	Influence on memory in the test recognition new localization of known object (mice; Dose of Compound 0.5 mg/kg)	Influence on memory in the test recognition new localization of known object (mice; Dose of Compound 1.0 mg/kg)
CN1CCc2c(c3cc(Cl)ccc3n2CCc2ccc(C(F)(F)F)nc2)C1 [Compound 250]	84%	Type one	101%	79%	93%					
CN1CCc2c(c3cc(Cl)ccc3n2CCc2nc(-c3ccccc3)cs2)C1 [Compound C1-8]						increased the calcium-retention capacity of mitochondria				
Cc1ccc2c(c1)c1c(n2CCc2ccc(C)nc2)CCN(C)C1 [Dimebon, dimebon, reference compound]	95%		82%	86%	91%		+	+	−	−
